Reference: PMC6234866, “High-Affinity Chemotaxis to Histamine Mediated by the TlpQ Chemoreceptor of the Human Pathogen Pseudomonas aeruginosa” (mBio, 2018)
Like-named read-outs stand apart in the source and are kept apart here.

What was measured:
McpU-LBD [1] = target: T1, McpU-LBD (Pseudomonas putida, UniProt Q88NI1); assay: Thermal shift assay of McpU-LBD; type: binding, Pseudomonas putida KT2440; conditions: 10 µM McpU-LBD, Biolog plate PM3B; Tm without ligand 46.5°C
Method: Thermal shift experiments were conducted as reported in reference in [57]. McpU-LBD in polybuffer {5 mM Tris, 5 mM PIPES [piperazine-N,N′-bis(2-ethanesulfonic acid)], 5 mM MES [morpholineethanesulfonic acid], 10% glycerol [vol/vol], 150 mM NaCl, pH 7.0} was used at a final concentration of 10 µM. Biolog (Hayward, CA, USA) compound arrays PM3B (nitrogen sources), PM4A (phosphorous and sulfur sources), and PM5 (nutrient supplements) were used for screening. The compositions of these arrays are provided at http://208.106.130.253/pdf/pm_lit/PM1-PM10.pdf.

McpU-LBD [2] = target: T1, McpU-LBD; assay: ITC binding of ligands to McpU-LBD; set-up: species or system Pseudomonas putida KT2440; conditions: for ΔH McpU-LBD / Kd: 25°C; for Kd: polybuffer pH 7.0
TlpQ-LBD [3] = target: TlpQ-LBD (Pseudomonas aeruginosa, UniProt Q9I0I4); assay: biochemical; type: binding, Pseudomonas aeruginosa PAO1
TlpQ-LBD [4] = assay: biochemical; type: binding, Pseudomonas aeruginosa PAO1; conditions: ratio of ITC KD values
McpU-LBD [5] = target: T1, McpU-LBD; conditions: read-out: KD McpU-LBD; ITC; reported previously; cited from earlier work
KT2440 = assay: Growth with ligand as sole carbon or nitrogen source, KT2440; conditions: KT2440, minimal medium, 5 mM ligand
PAO1 = assay: Growth with ligand as sole carbon or nitrogen source, PAO1; conditions: PAO1, minimal medium, 5 mM ligand
[6] = test system: Ralstonia pseudosolanacearum Ps29; conditions: Ps29, minimal medium, 5 mM
[7] = test system: P. aeruginosa PA14 mutant defective in pctA, pctC and tlpQ; conditions: deletion of pctA, tlpQ homologues
Method: (§1) Two protocols were used that differed in the ways the cells were counted. The first protocol was used to generate the data shown Fig. S6, whereas the second protocol was used for the remaining chemotaxis experiments. In the first protocol, overnight cultures of strains were diluted to an OD660 of 0.05 in MS medium ([58]) supplemented with 6 mg·liter^−1 Fe citrate, trace elements, and 15 mM glucose and grown at 37°C. At an OD660 of 0.4, the cultures were centrifuged at 1,700 × g for 5 min and the pellet was washed twice with chemotaxis buffer (50 mM potassium phosphate, […], 0.05% [vol/vol] glycerol, pH 7.0). The cells were resuspended in this buffer and adjusted to an OD660 of 0.1, and 230-µl aliquots were placed into 96-well plates. Capillary tubes (P1424, Microcaps; Drummond Scientific) were heat sealed at one end and filled with chemotaxis buffer or chemotaxis chemoattractant solution. The capillaries were then immersed in bacterial suspensions at their open ends. After 30 min at room temperature, the capillaries were removed and rinsed with sterile water, and the content was expelled into 1 ml of M9 medium. Serial dilutions were plated on LB medium, and the CFU were determined. In all cases, the data were corrected to the number of cells that swam into the buffer-containing capillaries. In the second protocol, we used computer-assisted image analysis as reported previously ([59]). Briefly, capillaries were filled with chemoattractant solutions in 10 mM HEPES buffer (pH 7.0) containing 1% (wt/vol) agarose and heat sealed on one side. The cells were grown in 2× yeast extract-tryptone (YT), medium and 10-μl aliquots of the cell suspension were placed onto a microscope slide within the U-shaped spacer, which was then covered by a coverslip. The chemoattractant-filled capillaries were introduced into the chemotaxis chamber, and cell movement was videotaped, with images taken at the beginning and at different time intervals. If not otherwise stated, the contact time between the cell and the chemoattractant was 2 min. The Bioinformatics Assistant Icy Sport detector software ([60]) was used to determine the number of cells per image. The magnitude of chemotaxis was expressed as the number of cells after a given time over the number of cells at the beginning of the experiment. The data shown are the means and standard deviations from three experiments conducted in triplicates.

P. aeruginosa PAO1 = conditions: PAO1, capillary assay
Method: as §1

[8] = test system: P. aeruginosa PAO1 mutant strains
Method: as §1

[9] = test system: P. aeruginosa strains 233, 401 and PA14; conditions: 5 mM histamine; all analyzed P. aeruginosa strains
Method: as §1

PctC-LBD = PctC-LBD (Pseudomonas aeruginosa, UniProt Q9HW93); assay: Microcalorimetric binding studies with PctC-LBD; set-up: species or system Pseudomonas aeruginosa PAO1; conditions: direct microcalorimetric titration
PctA-LBD = PctA-LBD (Pseudomonas aeruginosa, UniProt G3XD24); conditions: for binding to PctA-LBD (in words): direct microcalorimetric titration
[10] = test system: Ralstonia pseudosolanacearum Ps29; conditions: 5 mM histamine, strain Ps29

T1 sequence (Q88NI1 50-284): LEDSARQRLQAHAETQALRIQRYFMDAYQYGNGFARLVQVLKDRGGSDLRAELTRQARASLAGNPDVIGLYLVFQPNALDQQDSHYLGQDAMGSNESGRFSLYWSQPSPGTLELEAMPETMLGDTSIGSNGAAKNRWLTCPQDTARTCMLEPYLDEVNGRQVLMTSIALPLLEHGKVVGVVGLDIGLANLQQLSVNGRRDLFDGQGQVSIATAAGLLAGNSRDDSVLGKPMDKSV
PctA-LBD, sequence (G3XD24 32-276): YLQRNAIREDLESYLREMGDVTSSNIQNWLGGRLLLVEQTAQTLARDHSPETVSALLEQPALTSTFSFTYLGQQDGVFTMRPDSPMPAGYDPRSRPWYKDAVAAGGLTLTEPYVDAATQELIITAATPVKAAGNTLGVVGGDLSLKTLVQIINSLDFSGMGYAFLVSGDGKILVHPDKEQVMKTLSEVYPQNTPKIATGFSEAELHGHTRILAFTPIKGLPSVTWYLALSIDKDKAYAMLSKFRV
TlpQ-LBD (Pseudomonas aeruginosa, UniProt Q9I0I4), sequence (Q9I0I4 33-359): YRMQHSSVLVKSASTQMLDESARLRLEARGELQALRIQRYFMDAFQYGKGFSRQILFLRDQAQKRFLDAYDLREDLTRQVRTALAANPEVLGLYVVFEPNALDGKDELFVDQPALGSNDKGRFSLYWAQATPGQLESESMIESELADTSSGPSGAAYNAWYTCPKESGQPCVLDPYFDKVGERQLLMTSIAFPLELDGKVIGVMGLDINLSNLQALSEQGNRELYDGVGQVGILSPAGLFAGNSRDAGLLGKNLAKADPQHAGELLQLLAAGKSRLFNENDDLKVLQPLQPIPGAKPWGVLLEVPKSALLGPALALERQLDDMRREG
PctC-LBD, sequence (Q9HW93 32-279): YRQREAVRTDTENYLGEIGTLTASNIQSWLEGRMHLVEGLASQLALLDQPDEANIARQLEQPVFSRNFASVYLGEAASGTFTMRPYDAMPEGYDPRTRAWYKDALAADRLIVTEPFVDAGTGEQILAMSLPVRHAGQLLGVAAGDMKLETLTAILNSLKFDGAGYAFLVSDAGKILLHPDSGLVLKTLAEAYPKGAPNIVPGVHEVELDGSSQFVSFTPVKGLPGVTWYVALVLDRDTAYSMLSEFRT

Row | Compound | Tm increase of McpU-LBD (McpU-LBD [1]) | binding to McpU-LBD (in words) (McpU-LBD [2]) | ΔH McpU-LBD (McpU-LBD [2]) [kcal/mol] | Kd (McpU-LBD [2]) [nM] | Kd (TlpQ-LBD [3]) [nM] | ΔH TlpQ-LBD (TlpQ-LBD [3]; ITC, 25°C) [kcal/mol] | KD McpU-LBD/KD TlpQ-LBD (TlpQ-LBD [4]) | Kd (McpU-LBD [5]) [nM] | growth as sole carbon or nitrogen source (KT2440) | growth as sole carbon or nitrogen source (PAO1) | also measured
1 | NCCCCN=C(N)N [Agmatine] | greater than 2 °C | Very tight binding | -14.5 ± 0.2 | 480 ± 20 | 150 ± 9 | -5.4 ± 0.1 | 3 | – | – | – | –
2 | NCCCCCN [Cadaverine] | – | – | -15.5 ± 0.5 | – | 150 ± 4 | -6.0 ± 0.1 | 147 | 22000 ± 2000 | – | – | –
3 | NCCN [Ethylenediamine] | greater than 2 °C | much lower affinities | -9.7 ± 0.5 | 39000 ± 4000 | – | -6.3 ± 0.6 | 23 | – | either not or were poor growth substrates | either not or were poor growth substrates | binding to TlpQ-LBD (in words) (TlpQ-LBD [3]; ITC): slightly weaker; Kd (TlpQ-LBD [3]; ITC, 25°C, polybuffer pH 7.0, read-out: KD TlpQ-LBD): 1710 nM
4 | NCCc1c[nH]cn1 [Histamine] | greater than 2 °C | much lower affinities | -2.6 ± 0.3 | 26000 ± 2000 | 639 ± 27 | -9.1 ± 0.3 | 41 | – | permitted the growth | permitted the growth | growth as sole carbon and nitrogen source [6]: no significant growth; concentration at onset of chemotactic response (P. putida KT2440; KT2440, capillary assay): 5 µM; chemotaxis (in words) (P. putida KT2440; KT2440, histamine dose response): only moderate chemotaxis; chemotaxis of PA14 triple mutant [7]: abolished histamine chemotaxis; concentration at onset of chemotactic response (P. aeruginosa PAO1): 500 nM; chemotaxis (in words) (P. aeruginosa PAO1; 2 min): much stronger; chemotaxis of PCT2Q complemented with pctA, pctC or tlpQ ([8]; 500 µM histamine, 2.5 min): significant chemotaxis; chemotaxis of PCT2Q complemented with pctC or tlpQ in trans ([8]; 500 µM histamine, exposure time 1 min): recovered histamine chemotaxis; chemotaxis of strain PCT2 (pctA, pctB, pctC deleted) ([8]; 5 mM histamine): abolished chemotaxis; concentration range of significant chemotaxis of PCT2 mutant ([8]; dose response): 0.5 µM and 500 µM; chemotaxis of PCT2Q mutant (pctABC and tlpQ deleted) ([8]; entire concentration range 50 nM to 50 mM): devoid of histamine chemotaxis; chemotaxis (in words) [9]: significant chemotaxis; binding to PctC-LBD (in words) (PctC-LBD): did not bind; binding to PctA-LBD, competition assay (in words) (PctA-LBD; PctA-LBD titrated with L-Ala with and without 20 mM histamine): does not bind directly; binding to PctA-LBD (in words) (PctA-LBD): did not bind; chemotaxis (in words) [10]: not attracted
5 | C[C@H](N)C(=O)O [L-Ala, L-alanine, reference compound] | – | – | – | – | – | – | – | – | – | – | binding to PctA-LBD (in words) (PctA-LBD): bound
6 | NC(=O)CC[C@H](N)C(=O)O [L-Gln, reference compound] | – | – | – | – | – | – | – | – | – | – | binding to PctC-LBD (in words) (PctC-LBD): bound
7 | NCCCCN [Putrescine] | – | – | -15 ± 0.5 | – | 134 ± 12 | -6.8 ± 0.3 | 15 | 2000 ± 100 | – | – | –
8 | NCCCCNCCCN [Spermidine] | – | – | -4.3 ± 0.3 | – | 56 ± 4 | -4.6 ± 0.4 | 80 | 4500 ± 400 | either not or were poor growth substrates | either not or were poor growth substrates | –
9 | C=C [ethylene] | – | – | – | – | – | – | – | – | – | – | binding to TlpQ-LBD (in words) (TlpQ-LBD [3]; ITC): did not show any binding
